Each structure is given as a SMILES string. Values after ≈ are worked out from the molar mass of the structure shown. Where only a bound is given, the exact number is not on record here.

By solubility (kinetic) is commonly meant solubility judged after dilution from a stock solution rather than from solid.

The conditions of the series: buffer; pH 7.4; 200.0 µM.
In the case of `CC(=O)c1ccc(NC(=O)/C(C#N)=C/c2ccncc2)cc1`, the solubility (kinetic) amounted to 43.2 µg/mL (≈ 148 µM). For `CCN(CC)CC#CC(O)(c1ccccc1)c1ccccc1` the value was greater than 44 µg/mL; for `O=C(CCc1ccccc1)NCc1ccncc1`, greater than 36 µg/mL. Compound `CCOc1cc(N2CCOCC2)c(OCC)cc1NC(=O)c1cc(S(=O)(=O)N2CCOCC2)ccc1F` showed a kinetic solubility of 6.5 µg/mL (≈ 12.1 µM). For `O=C1CC(N2CCN(c3ccc(F)cc3)CC2)C(=O)N1Cc1ccccc1` (configuration not stated) the value was 48.2 µg/mL (≈ 131 µM); for `Cc1ccc(C2Nc3cccc4cccc(c34)N2)cc1`, 4.7 µg/mL (≈ 18.1 µM). For `Cc1ccc(OCC(=O)NCCNC(=O)c2ccccn2)cc1` the value was 46.9 µg/mL (≈ 150 µM); for `Cc1ccc(NC(=O)c2ccc3nsnc3c2)c(C)c1`, 1.5 µg/mL (≈ 5.29 µM); for `CC(C)Cn1c(S(=O)(=O)O)nc2ccccc21`, greater than 38.1 µg/mL. Then `CCc1cccc(C)c1NC(=O)CCOc1ccccc1`, with 10.9 µg/mL (≈ 38.5 µM); and `CCOc1ccc(C(=O)N2CCN(c3ncccn3)CC2)cc1`, with 42.3 µg/mL (≈ 135 µM); and `CCCCCCN1C=CC=C/C1=C\C=C(C#N)C#N`, with 3.9 µg/mL (≈ 15.4 µM). In the case of `Cc1cc2cc(CNC(=O)Cc3ccc([N+](=O)[O-])cc3)ccc2[nH]1`, the solubility (kinetic) stood at 6.9 µg/mL (≈ 21.3 µM).

`COc1ccc(OCC(O)CNS(=O)(=O)c2cccs2)cc1` (configuration not stated) returned a solubility (kinetic) greater than 51.5 µg/mL. On to `COC(=O)c1ccccc1NC(=O)COC(=O)/C=C/c1cccs1`, for which the kinetic solubility stood at 1.8 µg/mL (≈ 5.21 µM). `CCN1CCC(N(C)C2CCCCC2)CC1`: the kinetic solubility was 24 µg/mL (≈ 107 µM). This solubility kinetic is about 13-fold higher than that of the compound before. For `O=C1NCCN/C1=C\C(=O)c1cccc(Br)c1`, the solubility (kinetic) is greater than 44.3 µg/mL. Then `Cc1ccc(C)c(C(=O)COC(=O)Cn2c(C)csc2=O)c1`, with greater than 47.9 µg/mL. Then `C/[N+]([O-])=C/c1c(OCc2ccccc2)ccc2ccccc12`, with greater than 43.7 µg/mL; and `Cc1cnc(NC(=O)c2cc(S(=O)(=O)N(C)C)ccc2N2CCCC2)s1`, with 4.7 µg/mL (≈ 11.9 µM). The compound `CCOC(=O)Nc1cccc(NC(=O)c2ccccc2F)c1` displayed a solubility (kinetic) greater than 45.3 µg/mL. With `NS(=O)(=O)c1ccc(CNC(=O)c2ccc(C(=O)c3ccccc3)cc2)cc1`, the solubility (kinetic) was 14.6 µg/mL (≈ 37 µM). Then `C#CCOc1ccc2ccccc2c1/C=C(/C#N)c1ccc(C(=O)O)cc1`, with 53 µg/mL (≈ 150 µM); and `CCN(C(=O)COC(=O)c1ccccc1O)c1nc2ccccc2s1`, with 2.4 µg/mL (≈ 6.73 µM). Then `O=C(CN1C(=O)NC2(CCCc3ccccc32)C1=O)c1ccc(F)c(F)c1` (configuration not stated), with 17.3 µg/mL (≈ 46.7 µM); and `Cc1[nH]c2ccccc2c(=O)c1C(=O)/C=C/c1ccccc1`, with 35.8 µg/mL (≈ 124 µM). `Cc1ccc(N=C2C(=O)Nc3ccccc32)c(C)c1`: the kinetic solubility worked out at 28.8 µg/mL (≈ 115 µM). For `Cc1ccc2cc(N)ccc2n1` the value was greater than 23.7 µg/mL. For `CC(C)N(C(=O)COC(=O)c1ccc(Cl)nc1)C(C)C` the value was 30.7 µg/mL (≈ 103 µM); for `CCOc1cccc(NC(=O)c2cnccc2C(F)(F)F)c1`, 43.2 µg/mL (≈ 139 µM); for `O=C(CSCc1ccccc1Cl)NCCSc1ccccn1`, 50.4 µg/mL (≈ 143 µM). Consider `CNC(=O)NC(=O)C(C)Oc1ccccc1F` (configuration not stated), for which the solubility (kinetic) was found to be 34.9 µg/mL (≈ 145 µM). In turn, `CCOCCCNC(=O)/C(C#N)=C/c1ccccc1F` displayed a kinetic solubility greater than 41.4 µg/mL. Then `O=C(NCC(=O)N1CCOCC1)c1ccc(Cl)c(Cl)c1`, with greater than 47.6 µg/mL; and `O=C(Cc1ccccc1)O/N=C1\CCCc2ccccc21`, with 17.1 µg/mL (≈ 61.2 µM). For `O=C(O)c1cccnc1C(=O)c1ccccc1` the value was 31.9 µg/mL (≈ 140 µM). Then `CCOc1ccccc1NC(=S)N1CCCc2ccccc21`, with 10.5 µg/mL (≈ 33.6 µM). `CNC(=S)Nc1ccc(OCc2ccccc2)cc1` displayed a solubility (kinetic) of 29.5 µg/mL (≈ 108 µM). Against the preceding compound, the solubility kinetic is about 2.8-fold higher. In turn, `COCCNC(=O)/C(C#N)=C/C=C/c1ccccc1` gave a kinetic solubility of 28.9 µg/mL (≈ 113 µM). Take `NS(=O)(=O)c1ccc(NC(=O)c2ccc(S(=O)(=O)N3CCCCC3)cc2)cc1`: the solubility (kinetic) stood at 2.1 µg/mL (≈ 4.96 µM). `COCCNc1cnn(-c2ccccc2)c(=O)c1Cl` had a kinetic solubility greater than 42 µg/mL.

`O=C(Nc1c(-c2ccccc2)nc2ccccn12)c1ccccc1` gave a solubility (kinetic) of 38.7 µg/mL (≈ 124 µM).

These data come from PubChem BioAssay AID1996.
